The values that follow come from US12679843B2, “Pyrrolopyrimidine amines as complement inhibitors” (BioCryst Pharmaceuticals, Inc., priority 2020, dated 2026).

SMILES strings stand for the structures. Where only a bound is given, the exact number is not on record here.

The target in this assay is Factor D (Homo sapiens, UniProt P00746). Briefly: Factor D esterolytic assay (Z-Lys-SBzl thioester substrate, DTNB, 405 nm). The assay is classed as biochemical. Conditions: substrate Z-Lys-SBzl 1.29 mM, 100 mM HEPES, 500 mM NaCl, pH 7.5, 10% DMSO, tested a minimum of three times. The method, then: The IC50 value of a compound (i.e., the concentration of the compound that inhibits 50% of the enzymatic activity) was calculated according to the procedure reported in U.S. Pat. No. 6,653,340 B1, e.g., column 74 (incorporated by reference).
Chain of Factor D (P00746 26-253): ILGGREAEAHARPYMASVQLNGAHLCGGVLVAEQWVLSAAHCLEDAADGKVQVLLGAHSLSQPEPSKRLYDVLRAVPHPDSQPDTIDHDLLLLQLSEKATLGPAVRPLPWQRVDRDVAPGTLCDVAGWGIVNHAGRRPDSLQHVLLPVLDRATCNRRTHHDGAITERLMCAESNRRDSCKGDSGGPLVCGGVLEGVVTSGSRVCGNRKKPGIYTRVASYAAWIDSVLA
Specifically, the compounds were dissolved in a stock solution of DMSO at 10.0 or 100 mM. A portion of this stock solution was added to assay buffer in a final volume of 50 μL. Controls included buffer alone and enzyme solutions to which DMSO was added. Substrate was added to the reaction wells immediately or after incubation at room temperature. The reaction rates were measured spectrophotometrically by the generation of product at 405 nm for 600 sec. Background absorbance at 690 nm was measured and subtracted from the absorbance at 405 nm for each well.
The reaction rate for enzyme alone was compared to the rate of enzyme in the presence of inhibitor and the percent inhibition was calculated as shown below: Percent Inhibition=[Rate without inhibitor−Rate with inhibitor)/(Rate without inhibitor)]−100 Factor D Esterolytic Assay:
An established esterolytic assay for the measurement of Factor D activity and inhibition of Factor D activity was used (Kam, C. M.; McRae, B. J.; Harper, J. W.; Niemann, M. A.; Volanakis, J. E.; Powers, J. C. Human complement proteins D. C2, and B Active site mapping with peptide thioester substrates. J Biol. Chem. 1987, 262, 3444-3451). For this assay Z-Lys-SBzl, 1.29 mM (Kim, S.; Narayana, S. V. L; Volanakis, J. E. Mutational analysis of the substrate binding site of human complement Factor D. Biochemistry, 1994, 33, 14393-14399) was used as the substrate for Factor D ([…]). Hydrolysis of this compound by Factor D liberated a free sulfhydryl group which is then reacted with 5,5′-dithiobis(2-nitrobenzoic acid) producing an intense yellow color (Habeeb, A. F. S. A. Reaction of protein sulfhydryl groups with Ellman's Reagent. Methods in Enzymol. 1976, 25, 457-464). The assays were performed in 96 well microtiter plates and rates of hydrolysis were monitored at 405 nm on a Biotek Synergy H1 plate reader. Hydrolysis rates were reported as change in mOD/min. The assay was conducted in 100 mM HEPES, 500 mM NaCl, pH 7.5 containing 10% DMSO in a final volume of 50 μL per well.
An IC50, a compound concentration which inhibits 50% of the enzymatic activity, was calculated. Compounds in the examples were tested a minimum of three times.
Take `Cc1nc(C(F)(F)F)cc2c3c(N)ncnc3n(CC(=O)N3[C@H](C(=O)Nc4cccc(Cl)n4)C[C@@]4(C)C[C@@H]34)c12` [Compound 351a, (1R,3S,5R)-2-(2-(4-amino-8-methyl-6-(trifluoromethyl)-9H-pyrido[4′,3′:4,5]pyrrolo[2,3-d]pyrimidin-9-yl)acetyl)-N-(6-chloropyridin-2-yl)-5-methyl-2-azabicyclo[3.1.0]hexane-3-carboxamide]: the IC50 was under 100 nM. The value for `Nc1ncnc2c1c1cc([N+](=O)[O-])ccc1n2CC(=O)N1[C@@H]2C[C@@H]2C[C@H]1C(=O)Nc1cccc(Br)n1` [Compound 188g, (1R,3S,5R)-2-(2-(4-amino-6-nitro-9H-pyrimido[4,5-b]indol-9-yl)acetyl)-N-(6-bromopyridin-2-yl)-2-azabicyclo[3.1.0]hexane-3-carboxamide] was under 100 nM; that for `Nc1ncnn2c(CC(=O)N3[C@@H]4C[C@@H]4C[C@H]3C(=O)NCc3cccc(Cl)c3F)ccc12` [Compound 66b, (1R,3S,5R)-2-(2-(4-aminopyrrolo[2,1-f][1,2,4]triazin-7-yl)acetyl)-N-(3-chloro-2-fluorobenzyl)-2-azabicyclo[3.1.0]hexane-3-carboxamide] was 100 to 1000 nM. Then `Cc1nc2c(N)ncnc2n1CC(=O)N1C[C@H](F)C[C@H]1C(=O)NCc1cccc(Cl)c1F` [Compound 152d, (2S,4R)-1-(2-(6-amino-8-methyl-9H-purin-9-yl)acetyl)-N-(3-chloro-2-fluorobenzyl)-4-fluoropyrrolidine-2-carboxamide], with 100 to 1000 nM; and `Nc1ncnc2c1c1cc(C(F)(F)F)ccc1n2CC(=O)N1[C@@H]2C[C@@H]2C[C@H]1C(=O)Nc1cncc(Br)n1` [Compound 260a, (1R,3S,5R)-2-(2-(4-amino-6-(trifluoromethyl)-9H-pyrimido[4,5-b]indol-9-yl)acetyl)-N-(6-bromopyrazin-2-yl)-2-azabicyclo[3.1.0]hexane-3-carboxamide], with under 100 nM.

As for `COc1cccc2c1c1c(N)ncnc1n2CC(=O)N1[C@H](C(=O)Nc2cccc(Br)n2)C[C@@]2(C)C[C@@H]12` [Compound 172a, (1R,3S,5R)-2-(2-(4-amino-5-methoxy-9H-pyrimido[4,5-b]indol-9-yl)acetyl)-N-(6-bromopyridin-2-yl)-5-methyl-2-azabicyclo[3.1.0]hexane-3-carboxamide], the IC50 was under 100 nM.

On to `C[C@@]12C[C@@H](C(=O)Nc3cccc(Br)n3)N(C(=O)Cn3c4ccc(-c5cccnc5)nc4c4c(N)ncnc43)[C@@H]1C2` [Compound 372a, (1R,3S,5R)-2-(2-(4-amino-6-(pyridin-3-yl)-9H-pyrido[2′,3′:4,5]pyrrolo[2,3-d]pyrimidin-9-yl)acetyl)-N-(6-bromopyridin-2-yl)-5-methyl-2-azabicyclo[3.1.0]hexane-3-carboxamide], for which the IC50 lay in the range of 100 to 1000 nM.

As for `Cc1cc(-c2ccc(C(F)(F)F)nc2)cc2c3c(N)ncnc3n(CC(=O)N3[C@H](C(=O)Nc4cccc(Br)n4)C[C@@]4(C)C[C@@H]34)c12` [Compound 357a, (1R,3S,5R)-2-(2-(4-amino-8-methyl-6-(6-(trifluoromethyl)pyridin-3-yl)-9H-pyrimido[4,5-b]indol-9-yl)acetyl)-N-(6-bromopyridin-2-yl)-5-methyl-2-azabicyclo[3.1.0]hexane-3-carboxamide], the 50% inhibitory concentration (IC50) was under 100 nM.

With `C[C@@]12C[C@@H](C(=O)Nc3cccc(Br)n3)N(C(=O)Cn3c4ccc(C5CCCC5)cc4c4c(N)ncnc43)[C@@H]1C2` [Compound 338e, (1R,3S,5R)-2-(2-(4-amino-6-cyclopentyl-9H-pyrimido[4,5-b]indol-9-yl)acetyl)-N-(6-bromopyridin-2-yl)-5-methyl-2-azabicyclo[3.1.0]hexane-3-carboxamide], the IC50 is under 100 nM. Then `C[C@@]12C[C@@H](C(=O)Nc3cccc(Br)n3)N(C(=O)Cn3c4ccc(O)cc4c4c(N)ncnc43)[C@@H]1C2` [Compound 164a, (1R,3S,5R)-2-(2-(4-amino-6-hydroxy-9H-pyrimido[4,5-b]indol-9-yl)acetyl)-N-(6-bromopyridin-2-yl)-5-methyl-2-azabicyclo[3.1.0]hexane-3-carboxamide], with under 100 nM; and `Cc1ccc(Br)nc1NC(=O)[C@@H]1C[C@@H](F)CN1C(=O)Cn1c2ccc(C(F)(F)F)cc2c2c(N)ncnc21` [Compound 14a, (2S,4R)-1-(2-(4-amino-6-(trifluoromethyl)-9H-pyrimido[4,5-b]indol-9-yl)acetyl)-N-(6-bromo-3-methylpyridin-2-yl)-4-fluoropyrrolidine-2-carboxamide], with under 100 nM.

Take `CC(C)(C)CCNC(=O)[C@@H]1C[C@H]2C[C@H]2N1C(=O)Cn1cnc2c(N)ncnc21` [Compound 95c, (1R,3S,5R)-2-(2-(6-amino-9H-purin-9-yl)acetyl)-N-(3,3-dimethylbutyl)-2-azabicyclo[3.1.0]hexane-3-carboxamide]: the IC50 is over 1000 nM.

Turning to `COC(=O)c1cn(CC(=O)N2C[C@H](F)C[C@H]2C(=O)NCc2cccc(Cl)c2F)c2ncnc(N)c12` [Compound 146a, methyl 4-amino-7-(2-((2S,4R)-2-((3-chloro-2-fluorobenzyl)carbamoyl)-4-fluoropyrrolidin-1-yl)-2-oxoethyl)-7H-pyrrolo[2,3-d]pyrimidine-5-carboxylate], the IC50 was over 1000 nM. Then `Cc1cc(C(F)(F)F)cc2c3c(N)ncnc3n(CC(=O)N3C[C@H](F)C[C@H]3C(=O)Nc3cncc(Cl)n3)c12` [Compound 325c, (2S,4R)-1-(2-(4-amino-8-methyl-6-(trifluoromethyl)-9H-pyrimido[4,5-b]indol-9-yl)acetyl)-N-(6-chloropyrazin-2-yl)-4-fluoropyrrolidine-2-carboxamide], with under 100 nM.

Consider `Cc1cc2c(cc1F)c1c(N)ncnc1n2CC(=O)N1[C@H](C(=O)Nc2cccc(Br)n2)C[C@@]2(C)C[C@@H]12` [Compound 382a, (1R,3S,5R)-2-(2-(4-amino-6-fluoro-7-methyl-9H-pyrimido[4,5-b]indol-9-yl)acetyl)-N-(6-bromopyridin-2-yl)-5-methyl-2-azabicyclo[3.1.0]hexane-3-carboxamide], for which the IC50 was under 100 nM. As to `Cc1ncc(-c2cc(C)c3c(c2)c2c(N)ncnc2n3CC(=O)N2[C@H](C(=O)Nc3cccc(Br)n3)C[C@@]3(C)C[C@@H]23)cn1` [Compound 309a, (1R,3S,5R)-2-(2-(4-amino-8-methyl-6-(2-methylpyrimidin-5-yl)-9H-pyrimido[4,5-b]indol-9-yl)acetyl)-N-(6-bromopyridin-2-yl)-5-methyl-2-azabicyclo[3.1.0]hexane-3-carboxamide], the IC50 is under 100 nM. Regarding `Cc1ncc(-c2cn(CC(=O)N3C[C@H](F)C[C@H]3C(=O)Nc3nc(Br)ccc3C)c3ncnc(N)c23)cn1` [Compound 118a, (2S,4R)-1-(2-(4-amino-5-(2-methylpyrimidin-5-yl)-7H-pyrrolo[2,3-d]pyrimidin-7-yl)acetyl)-N-(6-bromo-3-methylpyridin-2-yl)-4-fluoropyrrolidine-2-carboxamide], the IC50 is over 1000 nM. Then `Nc1ncnc2c1c1cc(CCC(=O)O)ccc1n2CC(=O)N1[C@@H]2C[C@@H]2C[C@H]1C(=O)Nc1cccc(Br)n1` [Compound 165a, 3-(4-amino-9-(2-((1R,3S,5R)-3-((6-bromopyridin-2-yl)carbamoyl)-2-azabicyclo[3.1.0]hexan-2-yl)-2-oxoethyl)-9H-pyrimido[4,5-b]indol-6-yl)propanoic acid], with under 100 nM. Regarding `Cc1ncc(NC(=O)[C@@H]2C[C@@]3(C)C[C@H]3N2C(=O)Cn2c3ncnc(N)c3c3cc(C(F)(F)F)cc(C)c32)nc1Cl` [Compound 364e, (1R,3S,5R)-2-(2-(4-amino-8-methyl-6-(trifluoromethyl)-9H-pyrimido[4,5-b]indol-9-yl)acetyl)-N-(6-chloro-5-methylpyrazin-2-yl)-5-methyl-2-azabicyclo[3.1.0]hexane-3-carboxamide], the IC50 is under 100 nM. With `C[C@@]12C[C@@H](C(=O)Nc3cccc(Br)n3)N(C(=O)Cn3c4ccc(Cl)cc4c4c(N)ncnc43)[C@@H]1C2` [Compound 237a, (1R,3S,5R)-2-(2-(4-amino-6-chloro-9H-pyrimido[4,5-b]indol-9-yl)acetyl)-N-(6-bromopyridin-2-yl)-5-methyl-2-azabicyclo[3.1.0]hexane-3-carboxamide], the IC50 was under 100 nM. For the compound `C[C@@]12C[C@@H](C(=O)Nc3cccc(Br)n3)N(C(=O)Cc3ccc4c(N)ncnn34)[C@@H]1C2` [Compound 71a, (1R,3S,5R)-2-(2-(4-aminopyrrolo[2,1-f][1,2,4]triazin-7-yl)acetyl)-N-(6-bromopyridin-2-yl)-5-methyl-2-azabicyclo[3.1.0]hexane-3-carboxamide], the IC50 lay in the range of 100 to 1000 nM.
